Here are results for twelve compounds from patent US4277479A, “Tetrazolylalkoxycarbostyril derivatives and pharmaceutical compositions containing them” (Otsuka Pharmaceutical Co., Ltd., priority 1978, dated 1981).

For data set [1], the system named is blood platelets. As to conditions: at low concentration; Japanese Patent Kokai No. 125,930/73; cited from earlier work.
For data set [2], the system named is thrombosis. The following applies: administered orally or intravenously to mammals including humans; Japanese Patent Kokai No. 125,930/73; cited from earlier work.
The subject of data set [3] is rabbit platelet (ADP-induced aggregation). Description: Platelet aggregation inhibitory effect, ADP-induced aggregation in rabbit platelet. It counts as cell-based. The following applies: Oryctolagus cuniculus; for inhibition at 100 µM: concentration of the test compound solution 10^-4 mole; for inhibition at 100 µM / inhibition at 10 µM: read-out: Inhibition effect on ADP-induced aggregation in rabbit platelet; for inhibition at 10 µM: concentration of the test compound solution 10^-5 mole; for inhibition at 1 µM: concentration of the test compound solution 10^-6 mole. The source says: (§1) The blood sample used for the test is a 1/9 (by volume) mixture of sodium citrate and whole blood collected from rabbit. Said sample is subjected to 10-minute centrifugal separation at 1,000 r.p.m. to obtain a platelet rich plasma (PRP). The thus obtained PRP is separated, and the remaining blood sample is further subjected to 15-minute centrifugal separation at 3,000 r.p.m. to obtain a platelet poor plasma (PPP).
(§2) The number of platelets in the PRP is counted by the Brecher-Clonkite Method, and the PRP is diluted with the PPP to prepare a PRP sample with platelet concentration of 300,000/mm^3 for the adenosine diphosphate (ADP)-induced aggregation test. There is also prepared a PRP sample with platelet concentration of 450,000/mm^3 for the collagen-induced aggregation test.
(§3) 0.6 Ml of said PRP sample is added into 0.01 ml of a solution of a test compound of a predetermined concentration and the mixture is placed in a 37° C. thermostat for one minute. Then 0.07 ml of an ADP or collagen solution is added to the mixture. Transmittance of this mixture is determined and the change of transmittance is recorded by using the aggregometer at stirrer speed of 1,100 r.p.m. […] ADP is adjusted to a concentration of 7.5×10^-5 M, and the collagen solution is prepared by triturating 100 mg of collagen with 5 ml of said buffer and the supernatant is used as collagen inducer. Adenosine and acetylsalicylic acid are used as controls for the ADP-induced aggregation test and the collagen-induced aggregation test, respectively. The platelet aggregation inhibitory effect is measured in terms of percent inhibition with respect to the aggregation rate of the controls. The aggregation rate is calculated from the following formula: [formula] wherein a: transmittance of PRP
(§4) b: transmittance of PRP containing a test compound and an aggregation inducer
(§5) The compounds tested are as follows.

Data set [4] in a line: Acute toxicity test. The following applies: mouse, in vivo; male mice, oral administration. The protocol:
The test compounds were administered orally to the mice and LD50 (mg/kg) of the compounds was determined.

Data set [5] has as its system cerebral blood flow, bastard dog. Description: Increasing effect of cerebral blood flow in anesthetized dog. The following applies: Canis lupus familiaris, iv; for change in vivo at 0.3 mg/kg: dosage 300 μg/kg. It counts as in vivo. On the procedure: (Test of increasing effect of cerebral blood flow)
Thus, a bastard dog (male, 12-20 kg of body weight) was fixed in a prone (position) and was anesthetized with […] of pentobarbital sodium and forced to breathe at a frequency of respiration of 20 times/minute. Then, the skull was bared and the surface bone was removed to expose the venous sinus by using a grinder and the venous blood was taken out from the venas which was cannulizated. The amount of venous blood flow was measured by using an electromagnetic blood flow meter and next measured by using drop-counter to measure the number of drops of blood per 10 seconds.
The increasing effect of cerebral blood flow was calculated by comparing the number of blood drops in 30 seconds at the peak of increasement shown before and after the administration of compound to be tested. Each of the compounds to be tested was dissolved in dimethylformamide and diluted with physiological saline solution and administered through a cannule being inserted into the profunda femoris vein.

The subject of data set [6] is rabbit platelet (collagen-induced aggregation). Description: Platelet aggregation inhibitory effect, collagen-induced aggregation in rabbit platelet. Format: cell-based. As to conditions: Oryctolagus cuniculus, read-out: Inhibition effect on collagen-induced aggregation in rabbit platelet; for inhibition at 100 µM: concentration of the test compound solution 10^-4 mole; for inhibition at 10 µM: concentration of the test compound solution 10^-5 mole; for inhibition at 1 µM: concentration of the test compound solution 10^-6 mole.
Excerpt: as §1, §2, §3, §4, §5

Setting [7] is: through profunda femoris vein, dog.

With `CC(C)(C)NCC(O)COc1cccc2c1CCC(=O)N2` (stereo not drawn) [5-(2'-hydroxy-3-tert-butylamino)-propoxy-3,4-dihydrocarbostyril], in data set [1], the “inhibition of the aggregation of blood platelets” value is given as “could specifically inhibit the aggregation of blood platelets”. Further, in data set [2], the “effectiveness for preventing and treating thrombosis” value is “very effective for preventing and treating thrombosis”.

Broadly, the inhibition is the change of the read-out against control, counted positive when it falls. As usually defined, the LD50 is the dose at which mortality reaches 50%. High values mean a less toxic substance, low ones a more toxic substance. As to `O=C1CCc2cc(OCCCc3nnnn3C3CCCCC3)ccc2N1` [Compound 3, 6-[3-(1-Cyclohexyltetrazol-5-yl)propoxy]-3,4-dihydrocarbostyril], in data set [3], the inhibition at 100 µM was found to be 76.7%, the inhibition at 10 µM worked out at 59.6% and at 1 µM the inhibition was 9.6%. This compound came in with an LD50 in data set [4] of over 1000 mg/kg. This compound showed a change in vivo at 0.03 mg/kg in data set [5] (dosage 30 μg/kg, through profunda femoris vein, dog) of 69%. Further, in data set [6], the inhibition at 100 µM turned out to be 100%, the inhibition at 10 µM amounted to 53.5% and the inhibition at 1 µM was found to be 10.3%.

`O=c1ccc2cc(OCCCc3nnnn3Cc3ccccc3)ccc2[nH]1` [Compound 4, 6-[3-(1-Benzyltetrazol-5-yl)propoxy]carbostyril]: in data set [3], the inhibition at 100 µM is 100%, the inhibition at 10 µM amounted to 45.5% and the inhibition at 1 µM was 3.7%. The LD50 in data set [4] was over 1000 mg/kg. This compound also returned a change in vivo at 0.3 mg/kg in data set [5] (setting [7]) of 65.8%. Besides, in data set [6], the inhibition at 100 µM is 100%, the inhibition at 10 µM worked out at 72.5% and the inhibition at 1 µM came to 10.8%.

For the compound `O=c1ccc2cc(OCCCc3nnnn3-c3ccccc3)ccc2[nH]1` [Compound 9, 6-[3-(1-Phenyltetrazol-5-yl)propoxy]carbostyril], in data set [3], the inhibition at 100 µM worked out at 100%, the inhibition at 10 µM is 45.1% and the inhibition at 1 µM worked out at 26.8%. Also, the LD50 in data set [4] is over 1000 mg/kg. The change in vivo at 0.3 mg/kg in data set [5] (setting [7]) was 69.9%. In addition, in data set [6], the inhibition at 100 µM is 100%, the inhibition at 10 µM came out at 100% and the inhibition at 1 µM stood at 32.8%.

`Cc1cc(=O)[nH]c2ccc(OCCCc3nnnn3C3CCCCC3)cc12` [Compound 10, 4-Methyl-6-[3-(1-cyclohexyltetrazol-5-yl)propoxy]carbostyril]: in data set [3], the inhibition at 100 µM came out at 100%, the inhibition at 10 µM amounted to 61.7% and at 1 µM the inhibition was 28.1%. The compound further showed an LD50 in data set [4] of over 1000 mg/kg. Also, in data set [6], the inhibition at 100 µM was 100%, the inhibition at 10 µM was determined as 100% and the inhibition at 1 µM amounted to 18.2%.

`O=C1CCc2c(cccc2OCCCc2nnnn2C2CCCCC2)N1` [Compound 11, 5-[3-(1-Cyclohexyltetrazol-5-yl)propoxy]-3,4-dihydrocarbostyril]: the results for the inhibition at 100 µM in data set [3] and in data set [6] were 90.4% and 98.4%, respectively. The inhibition at 10 µM amounted to 30.2% in data set [3] and 42.4% in data set [6]. In data set [4], this compound returned an LD50 of over 1000 mg/kg.

As to `O=c1ccc2cc(OCCCc3nnnn3C3CCCCC3)ccc2n1Cc1ccccc1` [Compound 12, 1-Benzyl-6-[3-(1-cyclohexyltetrazol-5-yl)propoxy]carbostyril], in data set [3], the inhibition at 100 µM was 76.8% and the inhibition at 10 µM was determined as 35.2%. The LD50 in data set [4] was over 1000 mg/kg. In data set [6], the inhibition at 100 µM stood at 92.6%, the inhibition at 10 µM was found to be 41.5% and the inhibition at 1 µM is 21.8%.

Regarding `C=CCn1c(=O)ccc2cc(OCCCc3nnnn3C3CCCCC3)ccc21` [Compound 13, 1-Allyl-6-[3-(1-cyclohexyltetrazol-5-yl)propoxy]carbostyril], in data set [3], the inhibition at 100 µM worked out at 81.6% and the inhibition at 10 µM was 41.7%. This compound also had an LD50 in data set [4] of over 1000 mg/kg. For the same compound, in data set [6], the inhibition at 100 µM was determined as 89.7%, the inhibition at 10 µM is 44.8% and the inhibition at 1 µM is 23.2%.

As to `CC(=O)N1C(=O)CCc2cc(OCCCc3nnnn3C3CCCCC3)ccc21` [Compound 14, 1-Acetyl-6-[3-(1-cyclohexyltetrazol-5-yl)propoxy]-3,4-dihydrocarbostyril], in data set [3], the inhibition at 100 µM amounted to 79.4% and the inhibition at 10 µM was determined as 43.2%. In addition, in data set [4], the 50% lethal dose (LD50) is over 1000 mg/kg. Also, in data set [6], the inhibition at 100 µM was 86.8% and the inhibition at 10 µM stood at 47.3%.

For `CCc1ccc(-n2nnnc2COc2ccc3c(c2)CCC(=O)N3)cc1` [Compound 15, 6-[1-(4-Ethylphenyl)tetrazol-5-yl-methoxy]3,4-dihydrocarbostyril], in data set [3], the inhibition at 100 µM turned out to be 78.5% and the inhibition at 10 µM stood at 38.9%. This compound also returned an LD50 in data set [4] of over 1000 mg/kg. Moreover, in data set [6], the inhibition at 100 µM amounted to 100% and the inhibition at 10 µM came to 35.1%.

As to `COc1cc(C(=O)N2C(=O)CCc3cc(OCCCc4nnnn4C4CCCCC4)ccc32)cc(OC)c1OC` [Compound 16, 1-(3,4,5-Trimethoxybenzoyl)-6-[3-(1-cyclohexyltetrazol-5-yl)propoxy]-3,4-dihydrocarbostyril], the inhibition at 100 µM was determined as 75.6% in data set [3] and 91.3% in data set [6]. Moreover, the inhibition at 10 µM is 48.4% in data set [3] and 45.3% in data set [6]. In addition, the LD50 in data set [4] is over 1000 mg/kg.

`COc1ccc(Cc2nccc3cc(OC)c(OC)cc23)cc1OC` [Papaverine, papaverine, reference compound]: the change in vivo at 1 mg/kg in data set [5] (read-out: Increasing effect of cerebral blood flow) was determined as 78.9%.
